Measured values reported in patent publication US7589095B2, “4-phenyl-pyrimidine-2-carbonitrile derivatives” (N.V. Organon, priority 2004, dated 2009).

Molecular target: T1, recombinant human Cathepsin K (Homo sapiens, UniProt P43235)
T1 sequence (P43235 115-329): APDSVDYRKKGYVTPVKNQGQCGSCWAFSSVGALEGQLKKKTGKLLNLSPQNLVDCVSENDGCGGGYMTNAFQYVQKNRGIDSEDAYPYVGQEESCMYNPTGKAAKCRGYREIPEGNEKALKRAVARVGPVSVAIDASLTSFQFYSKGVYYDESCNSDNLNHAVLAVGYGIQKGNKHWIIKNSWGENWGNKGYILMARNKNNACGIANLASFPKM
Test: Cathepsin K activity: inhibition of recombinant human Cathepsin K, fluorogenic substrate Z-Phe-Arg-AMC
Type: biochemical
Conditions: pH5.5, fluorescence at 10 minutes, read-out: pIC50 (negative logarithm of the IC50 concentration) for inhibition of human cathepsin K (converted)
Protocol: To a 384 well microtitre plate is added 5 μl of a 100 μM solution of test compound in assay buffer (100 mM sodium acetate pH5.5, 5 mM EDTA, 5 mM dithiothreitol) with 10% dimethylsulfoxide (DMSO), plus 10 μl of 100 μM solution of the substrate Z-Phe-Arg-AMC (Bachem; 7-amido-coumarine derivative of the dipeptide N-benzyloxycarbonyl-Phe-Arg-OH) in assay buffer and 25 μl of assay buffer. 10 μl of a 1 mg/l solution of activated recombinant human cathepsin K, in assay buffer, is then added to the well, yielding a final inhibitor concentration of 10 μM.
Enzyme activity is determined by measuring the fluorescence of the liberated aminomethylcoumarin at […] using […] excitation, at 10 minutes. Percentage enzyme activity is calculated by comparison of this activity to that of a solution containing no inhibitor.

Row | IC50 | Compound
1 | < 10 nM | N#Cc1nc(CCCN2CCN(c3ccccn3)CC2)cc(-c2cccc(C(F)(F)F)c2)n1 [4a′, 4-[3-(4-Pyridin-2-yl-piperazin-1-yl)-propyl]-6-(3-trifluoromethylphenyl)-pyrimidine-2-carbonitrile]
2 | < 100 nM | CCCc1nc(C#N)nc(-c2cccc(C(F)(F)F)c2)c1C [Example 2, 5-Methyl-4-propyl-6-(3-trifluoromethylphenyl)-pyrimidine-2-carbonitrile]
3 | < 10 nM | N#Cc1nc(CCCN2CCCCC2)cc(-c2cccc(C(F)(F)F)c2)n1 [Example 4a, 4-(3-Piperidin-1-yl-propyl)-6-(3-trifluoromethylphenyl)-pyrimidine-2-carbonitrile]
4 | < 10 nM | CN1CCN(CCCc2cc(-c3cccc(C(F)(F)F)c3)nc(C#N)n2)CC1 [Example 4d, 4-[3-(4-Methyl-piperazin-1-yl)-propyl]-6-(3-trifluoromethylphenyl)-pyrimidine-2-carbonitrile]
5 | < 10 nM | N#Cc1nc(CCCNC2CCCCC2)cc(-c2cccc(C(F)(F)F)c2)n1 [Example 4e, 4-(3-Cyclohexylamino-propyl)-6-(3-trifluoromethylphenyl)-pyrimidine-2-carbonitrile]
6 | < 10 nM | CC(C)NCCCc1cc(-c2cccc(C(F)(F)F)c2)nc(C#N)n1 [Example 4f, 4-(3-isopropylamino-propyl)-6-(3-trifluoromethylphenyl)-pyrimidine-2-carbonitrile]
7 | < 10 nM | CN(CCCc1cc(-c2cccc(C(F)(F)F)c2)nc(C#N)n1)Cc1ccccc1 [Example 4g, 4-[3-(Benzyl-methyl-amino)-propyl]-6-(3-trifluoromethylphenyl)-pyrimidine-2-carbonitrile]
8 | < 100 nM | CC(C)CNCCCc1cc(-c2cccc(C(F)(F)F)c2)nc(C#N)n1 [Example 4h, 4-(3-Isobutylamino-propyl)-6-(3-trifluoromethylphenyl)-pyrimidine-2-carbonitrile]
9 | < 10 nM | N#Cc1nc(CCCNCc2ccncc2)cc(-c2cccc(C(F)(F)F)c2)n1 [Example 4i, 4-{3-[(Pyridin-4-ylmethyl)-amino]-propyl}-6-(3-trifluoromethylphenyl)-pyrimidine-2-carbonitrile]
10 | < 10 nM | CCC(CC)NCCCc1cc(-c2cccc(C(F)(F)F)c2)nc(C#N)n1 [Example 4r, 4-[3-(1-Ethyl-propylamino)-propyl]-6-(3-trifluoromethylphenyl)-pyrimidine-2-carbonitrile]
11 | < 10 nM | CN1CCC(N(C)CCCc2cc(-c3cccc(C(F)(F)F)c3)nc(C#N)n2)CC1 [Example 4s, 4-{3-[Methyl-(1-methyl-piperidin-4-yl)-amino]-propyl}-6-(3-trifluoromethylphenyl)-pyrimidine-2-carbonitrile]
12 | < 10 nM | CN1CCCN(CCCc2cc(-c3cccc(C(F)(F)F)c3)nc(C#N)n2)CC1 [Example 4u, 4-[3-(4-Methyl-[1,4]diazepan-1-yl)-propyl]-6-(3-trifluoromethylphenyl)-pyrimidine-2-carbonitrile]
13 | < 10 nM | CNC(=O)CNCCCc1cc(-c2cccc(C(F)(F)F)c2)nc(C#N)n1 [Example 8a, 4-[3-(Methylcarbamoylmethyl-amino)-propyl]-6-(3-trifluoromethylphenyl)-pyrimidine-2-carbonitrile]
14 | < 10 nM | CC(=O)NCCNCCCc1cc(-c2ccc(C)c(C)c2)nc(C#N)n1 [Example 14j, 4-[3-(2-Acetylamino-ethylamino)-propyl]-6-(3,4-dimethyl-phenyl)-pyrimidine-2-carbonitrile]
15 | < 10 nM | Cc1ccc(-c2cc(CCCNCCN3CCNC3=O)nc(C#N)n2)cc1C [Example 14n, 4-(3,4-Dimethyl-phenyl)-6-{3-[2-(2-oxo-imidazolidin-1-yl)-ethylamino]-propyl}-pyrimidine-2-carbonitrile]

Test system: not given
Test: not given
Conditions: not given

Row | melting point | Compound
16 | 64 °C | CCCc1cc(-c2cccc(C(C)C)c2)nc(C#N)n1 [Example 5a, 4-(3-Isopropyl-phenyl)-6-propyl-pyrimidine-2-carbonitrile]
17 | 112 °C | CCCc1cc(-c2cc(C(F)(F)F)cc(C(F)(F)F)c2)nc(C#N)n1 [Example 6a, 4-(3,5-Bis-trifluoromethyl-phenyl)-6-propyl-pyrimidine-2-carbonitrile]
